Test results published in patent US20040077720A1, “Inhibition of antibody production employing perfluorooctanoic acid or derivatives thereof” (priority 2002, published 2004).
“Also recorded” adds a separate entry of the source.

Key:
MRL/MpJ-Tnfrsf6^1pr-Mice [1] = test: Treatment of MRL/MpJ-Tnfrsf6 lpr mice (spontaneous SLE-like autoimmune syndrome); clinical observation, urine, autopsy; format: in vivo
Source text: As the experimental animal model for studies of inhibition of disease development and the underlying mechanism(s), Applicants have employed MRL-Tnfrs6/1 pr mice, which spontaneously develop high levels of a wide range of antibodies and an SLE-like syndrome, including severe lymphoadrenopathy. The MRL-mouse strain is known to develop a severe autoimmune disease syndrome. In fact, it is known to develop the most severe disease state. Highs levels of circulating autoantibodies, immunocomplexes mediated glomerulonephritis, arthritis and vasculitis are observed. The mice also develop a heavy proliferation of lymph nodes.
(§1) The presence of circulating immunocomplexes is analyzed indirectly by continuous monitoring of the levels of protein, hemoglobin and erythrocytes in the urine of these animals, the quantities of which are directly related to the severity of the immunocomplex-mediated glomerulonephritis which develops. […] The effectiveness of a low dose of the substance and 100% reproducibility argue for a direct inhibition of the mechanism(s) underlying development of the disease.
The symptoms which these mice develop include deterioration of joints and consequent motor difficulties, kidney damage with resulting uremia (retention of fluid) and extreme lymphoadenopathy. This lymphoadenopathy arises from defects in the FAS antigen gene resulting from the lymphoproliferation (1 pr) mutation in MRL-mice. In the final stages of their disease these animals also develop dermal vasculitis. 100% of these mice develop these symptoms.
The degree of renal damage can be monitored on the basis of the level of protein, erythrocytes, hemoglobin and hyalin cylinders in the urine. Lymphocyte proliferation can be assessed from the growth of lymph nodes in the shoulders and groin, as well as along the aorta. Blood and tissue samples are collected for analysis and histopathological examination.
Animal Model: MRL/MpJ-Tnfrsf6^1pr-Mice
This strain develops spontaneous systemic lupus erythematosus-like autoimmune syndrome at or about 8 weeks of age. The syndrome is characterized by massive lymphadenopathy, immune complex glomerulonephritis, arthritis, high level of circulating antibodies, and vasculitis.
Compounds A and B were tested. Compound A was a reference compound and compound B was PFOA. Treatment was initiated at the age of 5 and 8 weeks, respectively. All animals received the respective compounds on a daily basis. A control group of mice without treatment was run in parallel. The following parameters were screened.
2. Investigation of urine sediment.
3. Monitoring of proteinuria.
Parameters followed during the study: 1) Clinical observation; 2) Urine: light microscopy, proteinuria. The following organs were sampled: thymus, lymph nodes, kidney, liver, and spleen. The organs were investigated by histopathology and immunohistopathology.

horse erythrocytes = test: Immunization with horse erythrocytes after treatment; antibody response; format: in vivo; details: mice treated, then immunized with horse erythrocytes
Source text: (§2) By inhibiting antibody production, this substance also prevents the formation of immunocomplexes. These treated animals appear completely normal, without joint deterioration, lymphocyte proliferation, dermal vasculitis or immunocomplex-mediated glomerulonephritis.

thymus and spleen = test: Laboratory studies: thymus and spleen; design: species or system rodent; details: in vivo
Source text: PFOA belongs to a group of chemicals that induce peroxisome proliferation in the liver in rodent. […] These initial observations led to the inventors' discovery that PFOA could interfere with the immune system, and that PFOA could express immunosuppressive properties.

MRL/MpJ-Tnfrsf6^1pr-Mice [2] = test: Withdrawal study in treated MRL mice; format: in vivo
Method: as §1, §2
In a separate study compound B was withdrawn from mice treated during 23-26 weeks. The mice were followed for up to 39-42 weeks.

[3] = daily treatment started at age 5 or 8 weeks
[4] = mouse, in vivo, listed as perfluorooctanoic acid

In the case of O=C(O)C(F)(F)C(F)(F)C(F)(F)C(F)(F)C(F)(F)C(F)(F)C(F)(F)F [Compound B, Perfluorooctanoic acid], the anasarca (MRL/MpJ-Tnfrsf6^1pr-Mice [1]; at autopsy) is reported as “no anasarca was detected”, the survival rate (MRL/MpJ-Tnfrsf6^1pr-Mice [1]; compared to control group and compound A treated mice) is reported as “clear-cut increase of survival rate” and the body weight (MRL/MpJ-Tnfrsf6^1pr-Mice [1]; [3]) is reported as “No body weight gain”. For the same molecule, the enlarged lymph nodes (MRL/MpJ-Tnfrsf6^1pr-Mice [1]; [3]) was “No”, the “clinical observation: activity / movement” value (MRL/MpJ-Tnfrsf6^1pr-Mice [1]; mouse, in vivo) was “very active” and the fur (MRL/MpJ-Tnfrsf6^1pr-Mice [1]; mouse, in vivo) was “normal fur”. For the same molecule, the lymphadenopathy (MRL/MpJ-Tnfrsf6^1pr-Mice [1]; mouse, in vivo) was “No lymphadenothapy was observed”, the ulcers (MRL/MpJ-Tnfrsf6^1pr-Mice [1]; mouse, in vivo) was “No ulcers were observed” and the “signs / symptoms of disease during treatment” value (MRL/MpJ-Tnfrsf6^1pr-Mice [1]; mouse, in vivo, listed as compound B) was “did not develop any signs of disease”. For the same molecule, the “signs / symptoms of disease during treatment” value (MRL/MpJ-Tnfrsf6^1pr-Mice [1]; [4]) was “none of these disease symptoms are observed”, the proteinuria (MRL/MpJ-Tnfrsf6^1pr-Mice [1]; urine, daily treatment started at age 5 or 8 weeks) was “No” and the “antibody response to foreign antigens” value (horse erythrocytes) was “no antibody response”. For the same molecule, the thymus and spleen (thymus and spleen) was “a reduction of thymus and spleen was observed”, the “disease symptoms when treatment is terminated / substance withdrawn” value (MRL/MpJ-Tnfrsf6^1pr-Mice [2]; [4]) was “the animals develop disease symptoms; also recorded: the mice begin to develop typical disease symptoms” and the “time after withdrawal at which proteinuria was observed” value (MRL/MpJ-Tnfrsf6^1pr-Mice [2]; treated during 23-26 weeks) was 5 weeks. For the same molecule, the weight after withdrawal (MRL/MpJ-Tnfrsf6^1pr-Mice [2]; treated during 23-26 weeks, followed up to 39-42 weeks) was “an increase in weight was observed” and the “clinical symptoms after withdrawal” value (MRL/MpJ-Tnfrsf6^1pr-Mice [2]; treated during 23-26 weeks, followed up to the 42 week point) was “no sign of symptoms were observed”.
